Key:
[1] = tested on: GA activity of MDA-MB231 cells; assay: GA activity in mitochondrial fractions of treated MDA-MB231 cells; type: cell-based, human; conditions: 10 μM, 48 hours
Protocol: (§1) 100%=620 moles of glutamine hydrolyzed per minute per mole of enzyme. Data represent the average of 3 experiments (±s.d.). […] Following precipitation of the beads and re-suspension, the samples were analyzed by Western blotting with anti-V5 antibody. […] Data represent the average of 3 experiments (±s.d.). […] Data represent the average of 3 experiments (±s.d.). […] Data represent the average of 3 experiments (±s.d.). FIG. 3E NIH 3T3 cells transiently expressing Dbl were assayed for focus formation in the presence of 10 μM 968 alone or together with 7 mM dimethyl α-ketoglutarate. […] 100%=680 nM glutamine hydrolyzed per minute per 10^5 cells. Data are the average of 3 experiments (±s.d.). […] 100%=750 nM glutamine hydrolyzed per minute per 10^5 cells. Data represent the average of 3 experiments (±s.d.).
Mitochondrial preparations were obtained using the mitochondria isolation kit from QIAGEN (Cat #37612). A suspension containing 2×10^7 cells was transferred into a 50 ml conical tube and centrifuged at 500×g for 10 minutes at 4° C. The pellets were resuspended in 2 ml of ice-cold lysis buffer (supplied by QIAGEN) and incubated for 10 minutes at 4° C. using an end-over-end shaker. […]

[2] = tested on: NIH 3T3 cells stably expressing Cdc42(F28L), Rac(F28L), RhoC(F30L); assay: Invasion through growth factor-reduced Matri-gel; type: cell-based, mouse; conditions: 10 μM, 24 hours
Protocol: (§2) FIGS. 2A-G illustrate effects of 968 on the transforming activity of constitutively active Rho GTPases and human breast cancer cells. […] Cells were scored after 14 days and plotted as the percentage of the total number of colonies greater than 50 μm in diameter. Data represent the average of 3 experiments (±s.d.). […] Data represent the average of 3 experiments (±s.d.). […] Data represent the average of 3 experiments (±s.d.). […] After 24 hours at 37° C., the migratory cells were fixed, stained with GIEMSA, and counted. Data represent the average of 3 experiments (±s.d.). […] Data represent the average of 3 experiments (±s.d.). […] Data represent the average of 3 experiments (±s.d.). […] Data represent the average of 3 experiments (±s.d.).

[3] = tested on: GA activity of SKBR3 cells; assay: GA activity in mitochondrial fractions of treated SKBR3 cells; type: cell-based, human; conditions: 10 μM, 48 hours
Protocol: as §1
FIGS. 4A-E illustrate the role of glutaminase C activity in cellular transformation. […] Data represent the average of 3 experiments (±s.d.). […] Data represent the average of 3 experiments (±s.d.). […] 100% represents the activity measured in untreated Dbl-transformed cells. The data represent the average of 2 experiments. […] 100% represents the activity measured in untreated SKBR3 cells. The data represent the average of 2 experiments. […] Data represent the average of 3 experiments (±s.d.).
FIGS. 11A-E illustrate the effects of different treatments on GA activity. […] The addition of Pi stimulated the GA activity in control 3T3 cells, Dbl-expressing cells, and Cdc42(F28L)-expressing cells by ˜6-fold, 2-fold, and 3-fold, respectively. 100% represents the Pi-stimulated activity measured for Dbl-transformed cells that were not treated with 968. Data is the average of 3 experiments (±s.d.). […] The addition of Pi stimulated the GA activity of HMECs, MDA-MB231 cells, and SKBR3 cells by ˜5-fold, 2-fold, and 1.4-fold, respectively. […] The data are plotted as the percentage of GA activity measured for untreated SKBR3 cells and represent the average of 2 experiments. […] 100% represents the Pi-stimulated activity measured for untreated Dbl-transformed cells. […]

[4] = tested on: MDA-MB231 cells; assay: Growth to high density and in low serum, MDA-MB231; type: cell-based, human; conditions: 10 μM
Protocol: as §2

Compound: CN(C)c1ccc(C2Nc3ccc4ccccc4c3C3=C2C(=O)CC(C)(C)C3)cc1Br (centres unmarked) [Compound 968, 5-[3-bromo-4-(dimethylamino)phenyl]-2,2-dimethyl-2,3,5,6-tetrahydrobenzo[a]]
- basal GA activity [1]: sensitive to 968
- invasive activity [2]: inhibiting their invasive activity
- basal GA activity [3]: sensitive to 968
- growth in low serum ([4]; 1% fetal bovine serum): inhibits their growth
- growth to high density ([4]; 10% fetal bovine serum, 6 days): inhibits their growth

From patent US20130252983A1, “ACTIVATING PHOSPHORYLATION SITE ON GLUTAMINASE C” (CORNELL UNIVERSITY, priority 2010, published 2013)
